Source: patent US20220324835A1 (Nurix Therapeutics, Inc., priority 2018, published 2022)

What was measured:
T-cell = experiment: CD25 cell surface staining on T-cells stimulated with anti-CD3 antibody alone (Biological Example 2); format: cell-based; settings: 1 μM compound, primary human total T-cells, baseline = anti-CD3/anti-CD28 stimulated cells without inhibitor, read-out: CD25 staining, Anti-CD3 stimulation, fold change over baseline
T-cells = experiment: In vivo activity: CD25 expression on CD4+ or CD8+ T-cells of mice stimulated with anti-CD3 antibody; settings: 2 μg anti-CD3 antibody, 24 hours
Procedure, shortened: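 C57BL/6 or BALB/c mice dosed with inhibitor (IV, IP, SC or PO, e.g. BID or TID), then stimulated with 2 μg anti-CD3 antibody. Plasma IL-2, IFNγ, TNFα at 8 h and CD25 on CD4+/CD8+ T-cells by flow cytometry at 24 h; fold change over vehicle plus anti-CD3, binned A–E.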

Cn1cnnc1CC1(c2cccc(N3Cc4c(cc(CN5CC6(CC6)C5)cc4C(F)(F)F)C3=O)c2)COC1 [Compound 487, 6-{5-azaspiro[2.3]hexan-5-ylmethyl}-2-(3-{3-[(4-methyl-1,2,4-triazol-3-yl)methyl]oxetan-3-yl}phenyl)-4-(trifluoromethyl)-3H-isoindol-1-one]
fold induction at 1 µM (T-cell): > 1
CD4+ T-cell % CD25+ (T-cells; 135 mpk PO BID): C (C indicates 1.51-2.00)
CD8+ T-cell % CD25+ (T-cells; 135 mpk PO BID): D (D indicates 1.00-1.50)

Cn1cnnc1CC1(c2cccc(NC(=O)c3cc(CN4CC[C@H](F)C4)cc(C4CC4)n3)c2)COC1 [Compound 496, 6-cyclopropyl-4-{[(3S)-3-fluoropyrrolidin-1-yl]methyl}-N-(3-{3-[(4-methyl-1,2,4-triazol-3-yl)methyl]oxetan-3-yl}phenyl)pyridine-2-carboxamide]
fold induction at 1 µM (T-cell): > 1
CD4+ T-cell % CD25+ (T-cells; 135 mpk PO BID): C (C indicates 1.51-2.00)
CD8+ T-cell % CD25+ (T-cells; 135 mpk PO BID): D (D indicates 1.00-1.50)

Cn1cnnc1CC1(c2cccc(NC(=O)c3cc(CN4CCC5(CC5)C4)cc(C4CC4)n3)c2)COC1 [Compound 519, 4-((5-azaspiro[2.4]heptan-5-yl)methyl)-6-cyclopropyl-N-(3-(3-((4-methyl-4H-1,2,4-triazol-3-yl)methyl)oxetan-3-yl)phenyl)picolinamide]
fold induction at 1 µM (T-cell): > 1
CD4+ T-cell % CD25+ (T-cells; 45 mpk PO BID): C (C indicates 1.51-2.00)
CD8+ T-cell % CD25+ (T-cells; 45 mpk PO BID): D (D indicates 1.00-1.50)
CD4+ T-cell % CD25+ (T-cells; 90 mpk PO BID): A (A indicates >2.50)
CD8+ T-cell % CD25+ (T-cells; 90 mpk PO BID): D (D indicates 1.00-1.50)
CD4+ T-cell % CD25+ (T-cells; 180 mpk PO BID): A (A indicates >2.50)
CD8+ T-cell % CD25+ (T-cells; 180 mpk PO BID): C (C indicates 1.51-2.00)

Cn1cnnc1CC1(c2cccc(N3Cc4c(cc(CN5CCC6(CC6)C5)cc4C(F)(F)F)C3=O)c2)COC1 [Compound 520, 6-((5-azaspiro[2.4]heptan-5-yl)methyl)-2-(3-(3-((4-methyl-4H-1,2,4-triazol-3-yl)methyl)oxetan-3-yl)phenyl)-4-(trifluoromethyl)isoindolin-1-one]
fold induction at 1 µM (T-cell): > 1
CD4+ T-cell % CD25+ (T-cells; 45 mpk PO BID): D (D indicates 1.00-1.50)
CD8+ T-cell % CD25+ (T-cells; 45 mpk PO BID): D (D indicates 1.00-1.50)
CD4+ T-cell % CD25+ (T-cells; 90 mpk PO BID): D (D indicates 1.00-1.50)
CD8+ T-cell % CD25+ (T-cells; 90 mpk PO BID): D (D indicates 1.00-1.50)
CD4+ T-cell % CD25+ (T-cells; 135 mpk PO BID): C (C indicates 1.51-2.00)
CD8+ T-cell % CD25+ (T-cells; 135 mpk PO BID): D (D indicates 1.00-1.50)
CD4+ T-cell % CD25+ (T-cells; 180 mpk PO BID): B (B indicates 2.01-2.50)
CD8+ T-cell % CD25+ (T-cells; 180 mpk PO BID): D (D indicates 1.00-1.50)

C[C@@H](c1cc2c(c(C(F)(F)F)c1)CN(c1cccc(C3(Cc4nncn4C)COC3)c1)C2=O)N1C[C@H]2C[C@H]2C1 [Compound 541a, 6-((1S)-1-(3-azabicyclo[3.1.0]hexan-3-yl)ethyl)-2-(3-(3-((4-methyl-4H-1,2,4-triazol-3-yl)methyl)oxetan-3-yl)phenyl)-4-(trifluoromethyl)isoindolin-1-one]
fold induction at 1 µM (T-cell): > 1
CD4+ T-cell % CD25+ (T-cells; 135 mpk PO BID): D (D indicates 1.00-1.50)
CD8+ T-cell % CD25+ (T-cells; 135 mpk PO BID): D (D indicates 1.00-1.50)

C[C@@H](c1cc2c(c(C(F)(F)F)c1)CN(c1cccc(C3(Cc4nncn4C)COC3)c1)C2=O)N1CCC(C)(F)CC1 [Example 553a, (S)-6-(1-(4-fluoro-4-methylpiperidin-1-yl)ethyl)-2-(3-(3-((4-methyl-4H-1,2,4-triazol-3-yl)methyl)oxetan-3-yl)phenyl)-4-(trifluoromethyl)isoindolin-1-one]
fold induction at 1 µM (T-cell): > 1
CD4+ T-cell % CD25+ (T-cells; 135 mpk PO BID): D (D indicates 1.00-1.50)
CD8+ T-cell % CD25+ (T-cells; 135 mpk PO BID): D (D indicates 1.00-1.50)

C[C@H](c1cc2c(c(C(F)(F)F)c1)CN(c1cccc(C3(Cc4nncn4C)COC3)c1)C2=O)N1CCC(C)(F)CC1 [Example 553b, (R)-6-(1-(4-fluoro-4-methylpiperidin-1-yl)ethyl)-2-(3-(3-((4-methyl-4H-1,2,4-triazol-3-yl)methyl)oxetan-3-yl)phenyl)-4-(trifluoromethyl)isoindolin-1-one]
fold induction at 1 µM (T-cell): > 1
CD4+ T-cell % CD25+ (T-cells; 135 mpk PO BID): A (A indicates >2.50)
CD8+ T-cell % CD25+ (T-cells; 135 mpk PO BID): D (D indicates 1.00-1.50)
